Consider 20 molecules from patent US20260026504A1, “COMPOUND […] STRUCTURE, APPLICATION, AND INSECTICIDE” (Anhui Shengfeng Biochemical Co., Ltd, priority 2022, published 2026).

The data set deals with diamondback moth (Plutella xylostella) second instar larvae. The data set can be described thus: Toxicity to diamondback moth larvae by the leaf-dipping method. Type of data set: in vivo. To be noted: corrected mortality grade, 1 ppm, cabbage leaf dip; for mortality at 1 ppm: Plutella xylostella, in Brassica oleracea, foliar. The procedure: Determining the toxicity activity of part of compounds on diamondback moth (Plutella xylostella) instar larvae by the leafdipping method.
The test agents of the compounds in Table 2 were weighed out accurately with an electronic analytical balance, and the original drug was dissolved in a 10000 ppm solution with dimethyl sulfoxide as the solvent and then diluted with 0.1% of Triton solution to 1 ppm and 0.25 ppm solutions. Taking the cabbage not contacted with the liquid medicine, and cutting the leaves into 6 cm-diameter circular leaves. Soaking the leaves in the prepared liquid medicine for 15 seconds, taking out and drying, and placing the leaves into 6 cm culture dishes, wherein 1 cabbage leaf is placed in each culture dish. The same standard second instar larvae were placed in petri dishes with 10 heads per dish and 4 replicates per concentration for a total of 40 heads. After inoculation, the culture dish is placed in a constant-temperature culture chamber with the temperature of 25±1° C. and the illumination period of 16 (D) to 8 (L) h, and the number of dead and live larvae is investigated after 48 h and 72 h. A blank and a control of compound K1 and compound K2 were also provided.
The mortality is calculated according to the following formula 1, then the corrected mortality is calculated according to the formula 2, and finally the classification is carried out according to the corrected mortality value and the rating standard shown in the table 2, and the specific results are shown in the tables 3 and 4.
mortality %=(number of dead insects/total number of insects)×100% Equation 1;
corrected mortality %=[(treatment-control mortality)/(1-control mortality)]×100% Equation 2.

[1] abbreviates: 48 h, 48 h, read-out: mortality (1 ppm) 48 h.
The mark [2] stands for this setting: 72 h, 72 h, read-out: mortality (1 ppm) 72 h.

Like-named read-outs stand apart in the source and are kept apart here.

For orientation: mortality means the percentage killed. Take `Cc1cc(C2=NOC(c3cc(Cl)c(F)c(Cl)c3)(C(F)(F)F)C2)ccc1C(=O)Nc1cnn(CC2CC2)c1` (centres unmarked) [Compound 133]: the mortality at 1 ppm by setting is: under setting [1], 80 to 90%; under setting [2], 100%.
Consider `Cc1cc(C2=NOC(c3cc(Cl)c(F)c(Cl)c3)(C(F)(F)F)C2)ccc1C(=O)Nc1cnn(CC2CCC2)c1` (centres unmarked) [Compound 134], for which, under setting [2], the mortality at 1 ppm was in the range of 70 to 80%.
On to `Cc1cc(C2=NOC(c3cc(Cl)c(F)c(Cl)c3)(C(F)(F)F)C2)ccc1C(=O)Nc1cnn(C2CCCCC2)c1` (centres unmarked) [Compound 137], for which the “mortality (1 ppm) 72 h” value (72 h) was “C (80% to less than 90%)”.
For the molecule `Cc1cc(C2=NOC(c3cc(Cl)c(F)c(Cl)c3)(C(F)(F)F)C2)ccc1C(=O)Nc1cnn(Cc2ccccc2)c1` (centres unmarked) [Compound 139], the mortality at 1 ppm under setting [2] lay within 50 to 70%.
Same read-out and setting: in the case of `CC(=O)n1cc(NC(=O)c2ccc(C3=NOC(c4cc(Cl)c(F)c(Cl)c4)(C(F)(F)F)C3)cc2C)cn1` (centres unmarked) [Compound 140] it was 50 to 70%.
Regarding `Cc1cc(C2=NOC(c3cc(Cl)c(F)c(Cl)c3)(C(F)(F)F)C2)ccc1C(=O)Nc1cnn(C(=O)N(C)C)c1` (centres unmarked) [Compound 149], the mortality at 1 ppm stood at 100% under setting [1] and 100% under setting [2].
As to `CCN(CC)C(=O)n1cc(NC(=O)c2ccc(C3=NOC(c4cc(Cl)c(F)c(Cl)c4)(C(F)(F)F)C3)cc2C)cn1` (centres unmarked) [Compound 150], the mortality at 1 ppm was 80 to 90% under setting [1] and 100% under setting [2].
On to `Cc1cc(C2=NOC(c3cc(Cl)c(F)c(Cl)c3)(C(F)(F)F)C2)ccc1C(=O)Nc1cnn(S(C)(=O)=O)c1` (centres unmarked) [Compound 151], for which the mortality at 1 ppm under setting [2] is 70 to 80%.
With `CCCS(=O)(=O)n1cc(NC(=O)c2ccc(C3=NOC(c4cc(Cl)c(F)c(Cl)c4)(C(F)(F)F)C3)cc2C)cn1` (centres unmarked) [Compound 153], the mortality at 1 ppm fell in the range of 70 to 80% under setting [1] and 90 to 100% under setting [2].
For `Cc1cc(C2=NOC(c3cc(Cl)c(F)c(Cl)c3)(C(F)(F)F)C2)ccc1C(=O)Nc1cnn(S(=O)(=O)C(C)C)c1` (centres unmarked) [Compound 154], the mortality at 1 ppm runs as follows: under setting [1], 80 to 90%; under setting [2], 100%.
Consider `Cc1cc(C2=NOC(c3cc(Cl)c(F)c(Cl)c3)(C(F)(F)F)C2)ccc1C(=O)Nc1cnn(S(=O)(=O)c2ccccc2)c1` (centres unmarked) [Compound 155], for which the mortality at 1 ppm under setting [2] is 50 to 70%.
`Cc1cc(C2=NOC(c3cc(Cl)c(F)c(Cl)c3)(C(F)(F)F)C2)ccc1C(=O)Nc1cnn(S(=O)(=O)C2CCCCC2)c1` (centres unmarked) [Compound 157]: the mortality at 1 ppm is 90 to 100% under setting [1] and 100% under setting [2].
For `Cc1cc(C2=NOC(c3cc(Cl)c(F)c(Cl)c3)(C(F)(F)F)C2)ccc1C(=O)Nc1c(C)n[nH]c1C` (centres unmarked) [Compound 158], in that order: 50 to 70% and 90 to 100%.
`Cc1cc(C2=NOC(c3cc(Cl)c(F)c(Cl)c3)(C(F)(F)F)C2)ccc1C(=O)Nc1c(C)nn(C)c1C` (centres unmarked) [Compound 159]: the “mortality (1 ppm) 72 h” value (72 h) is reported as “B (90% to less than 100%)”.
On to `Cc1cc(C2=NOC(c3cc(Cl)c(F)c(Cl)c3)(C(F)(F)F)C2)ccc1C(=O)Nc1c(C)nn(C)c1C` (centres unmarked) [Compound 160], for which the mortality at 1 ppm is 50 to 70% under setting [1] and 70 to 80% under setting [2].
Turning to `CCCn1nc(C)c(NC(=O)c2ccc(C3=NOC(c4cc(Cl)c(F)c(Cl)c4)(C(F)(F)F)C3)cc2C)c1C` (centres unmarked) [Compound 161], the mortality at 1 ppm under setting [2] was 90 to 100%.
As for `Cc1cc(C2=NOC(c3cc(Cl)c(F)c(Cl)c3)(C(F)(F)F)C2)ccc1C(=O)Nc1c(C)nn(C(C)C)c1C` (centres unmarked) [Compound 162], the mortality at 1 ppm by setting is: under setting [1], 50 to 70%; under setting [2], 100%.
For `CC(=O)n1nc(C)c(NC(=O)c2ccc(C3=NOC(c4cc(Cl)c(F)c(Cl)c4)(C(F)(F)F)C3)cc2C)c1C` (centres unmarked) [Compound 168], the mortality at 1 ppm under setting [2] fell in the range of 90 to 100%.
As for `CCC(=O)n1nc(C)c(NC(=O)c2ccc(C3=NOC(c4cc(Cl)c(F)c(Cl)c4)(C(F)(F)F)C3)cc2C)c1C` (centres unmarked) [Compound 169], the mortality at 1 ppm under setting [2] was 80 to 90%.
With `CCCC(=O)n1nc(C)c(NC(=O)c2ccc(C3=NOC(c4cc(Cl)c(F)c(Cl)c4)(C(F)(F)F)C3)cc2C)c1C` (centres unmarked) [Compound 170], the mortality at 1 ppm under setting [2] lay in the range of 80 to 90%.
